Earlier results, collected in patent publication US20250347706A1, “DISPOSABLE CARTRIDGE FOR CLASSIFICATION OF ANTICOAGULANT AND METHOD OF USE” (Haemonetics Corporation, priority 2023, published 2025).

Settings: for half-life compared with dabigatran: in vivo

half-life compared with dabigatran	increased half-life (patients with severe renal impairment compared to healthy volunteers (Dager et al.))	half-life (lengthened in patients with renal dysfunction, Pradaxa product information) [h]	Compound
shorter half-lives than dabigatran	up to 44%		COc1ccc(-n2nc(C(N)=O)c3c2C(=O)N(c2ccc(N4CCCCC4=O)cc2)CC3)cc1 [apixaban]
		12 to 17	dabigatran
shorter half-lives than dabigatran			O=C(NC[C@H]1CN(c2ccc(N3CCOCC3=O)cc2)C(=O)O1)c1ccc(Cl)s1 [rivaroxaban]
